Like-named read-outs stand apart in the source and are kept apart here.
Experiments:
[1] = Penetration into brain and peripheral nerve in dogs; format: in vivo, dog; details: 25 mg kg-1 oral; for Kp: collie crossbred, 25 mg kg-1, two crossbred dogs; for Kp / Kp at 4 h / Kp at 1 h / Kp at 2 h / Kp at 3 h: dog, po
From the text: Br. J. Cancer (1984), 50, 291-303 Preclinical pharmacokinetics of benznidazole P. Workman', R.A.S. White2, M.I. Walton', L.N. Owen2* & P.R. Twentyman' 1MRC Clinical Oncology and Radiotherapeutics Unit, MRC Centre, Hills Road, Cambridge CB2 2QH, and 2Department of Clinical Veterinary Medicine, University of Cambridge, Madingley Road, Cambridge CB3 OES, UK. […] We have investigated the detailed pharmacokinetics of benznidazole in mice, dogs and sheep to provide a data base for the estimation of doses required for chemosensitization in man. Pharmacokinetic behaviour was linear except at high doses in mice. Absorption was fairly rapid and bioavailability was complete following both i.p. administration in mice and oral administration in dogs. Elimination t4 values were longer than for MISO, being 90 min in mice, 4-5 h in sheep and 9-11 h in dogs. At doses giving linear kinetics, peak whole plasma concentrations per administered mgkg-1 were 0.75 jigml-1 for the i.p. route in mice and 1.8jugmlP' for the oral route in dogs. Though between 39 and 59% of plasma benznidazole was bound to protein, tissue penetration was generally good. Tissue/whole plasma ratios ranged from 59-99% for transplantable mouse tumours and from 14-70% for spontaneous dog neoplasms. Nervous tissue penetration was similar to that in tumours: brain/whole plasma ratios averaged between 61 and 76% in mice and 42% in dogs, while peripheral nerve/whole plasma ratios in dogs averaged 74%. Mean liver/whole plasma ratios were 42% and 71% in BALB/c and C3H/He mouse strains respectively. Only -5% of the administered dose was excreted unchanged in the urine, indicating the likelihood of extensive metabolism. […] Enhancement of CCNU response is likely to require circulating benznidazole concentrations of 10-30 pgml-1 and we predict that these will be obtained with oral doses of 6-20 mgkg- 1 in man. […] This enhancement, or chemosensitization, is usually greater than that seen in dose-limiting normal tissues, resulting in an improved therapeutic index. Because of the relatively high doses of MISO usually required for chemosensitization in mice (see above refs), and also because of its neurotoxicity in man (Dische et al., 1977), we have been interested in finding an improved chemosensitizer. […] The lipophilic ana- logue benznidazole (N-benzyl-(2-nitroimidazolyl) acetamide, Ro 07-1051; Radanil; Roche), the structure of which is shown in Figure 1, was selected for detailed study because of its ability to *Present address: Animal Health Trust, Small Animals Centre, Lanwades Park, Kennett, Newmarket, Suffolk CB8 7PN, UK. Correspondence: P. Workman. […] These findings have been confirmed independently by Siemann et al. (1983). Although benznidazole is used quite widely in South America to treat patients with the trypanosomal infection Chagas' disease or with mucotaneous Leishmaniasis (Barclay et al., 1978; Cerisola et al., 1978; Coura et al., 1978; Fava et al., 1978), apart from our preliminary studies (White et al., 1982) the only published data on its pharmaco- kinetics are for human plasma concentrations measured by polarography (Raaflub & Ziegler, 1979; Raaflub, 1980). Here we describe the pharmacokinetics of benznidazole in the mouse, sheep and dog, as determined by high-performance liquid chromatography (HPLC). […] The Macmillan Press Ltd., 1984 292 P. WORKMAN et al. particularly on plasma and tumour concentrations, have been used as a basis for the estimation of the benznidazole doses required in a Phase I trial of benznidazole plus CCNU, at present ongoing in our Unit. Materials and methods Animals and tumours Adult inbred male BALB/c mice were obtained from OLAC (Southern) Ltd. (Bicester, UK) and adult inbred C3H/He mice of both sexes from OLAC and our own breeding colony. Mice were housed in plastic cages on sawdust bedding made from soft white woods, and allowed laboratory chow and water ad lib. They were used at 20-35 g body wt.

Aqueous solubility = format: physicochemical
[2] = Maximum tolerated dose in mice; details: male, mouse, in vivo, ip; BALB/c mice, i.p., highest dose used; read-out: maximum tolerated dose (about)
From the text: (§1) Br. J. Cancer (1984), 50, 291-303 Preclinical pharmacokinetics of benznidazole P. Workman', R.A.S. White2, M.I. Walton', L.N. Owen2* & P.R. Twentyman' 1MRC Clinical Oncology and Radiotherapeutics Unit, MRC Centre, Hills Road, Cambridge CB2 2QH, and 2Department of Clinical Veterinary Medicine, University of Cambridge, Madingley Road, Cambridge CB3 OES, UK. […] We have investigated the detailed pharmacokinetics of benznidazole in mice, dogs and sheep to provide a data base for the estimation of doses required for chemosensitization in man. Pharmacokinetic behaviour was linear except at high doses in mice. Absorption was fairly rapid and bioavailability was complete following both i.p. administration in mice and oral administration in dogs. […] Although benznidazole is used quite widely in South America to treat patients with the trypanosomal infection Chagas' disease or with mucotaneous Leishmaniasis (Barclay et al., 1978; Cerisola et al., 1978; Coura et al., 1978; Fava et al., 1978), apart from our preliminary studies (White et al., 1982) the only published data on its pharmaco- kinetics are for human plasma concentrations measured by polarography (Raaflub & Ziegler, 1979; Raaflub, 1980). Here we describe the pharmacokinetics of benznidazole in the mouse, sheep and dog, as determined by high-performance liquid chromatography (HPLC). […]

plasma proteins = experiment: Plasma protein binding, summary over species; format: in vivo; details: mouse, sheep, dog, range over species studied
From the text: as §1

[3] = cited from earlier work
bovine serum albumin = tested on: bovine serum albumin; design: method as in Clarke & Wardman, cited in Watts et al., 1980; details: ref Clarke & Wardman, cited in Watts et al., 1980; cited from earlier work
[4] = man, average daily dose 3.5 mg kg-1, literature

SMILES: O=C(Cn1ccnc1[N+](=O)[O-])NCc1ccccc1 [benznidazole, N-benzyl-(2-nitroimidazolyl) acetamide]
- Kp ([1]; brain, 1-4 h, read-out: brain/whole plasma ratio, overall mean (s.e., n=8)): 0.42
- Kp ([1]; peripheral nerve, 1-4 h, read-out: peripheral nerve/whole plasma ratio, mean (s.e., n=7)): 0.74
- brain concentration ([1]; dog G, 1 h): 1.1 µg/g
- peripheral nerve concentration ([1]; dog G, 1 h): 1.3 µg/g
- plasma concentration ([1]; dog G, 1 h): 3100 ng/mL
- brain concentration ([1]; dog G, 2 h): 1.5 µg/g
- peripheral nerve concentration ([1]; dog G, 2 h): 3.4 µg/g
- plasma concentration ([1]; dog G, 2 h): 3800 ng/mL
- brain concentration ([1]; dog G, 3 h): 2.1 µg/g
- plasma concentration ([1]; dog G, 3 h): 4300 ng/mL
- brain concentration ([1]; dog G, 4 h): 1.1 µg/g
- peripheral nerve concentration ([1]; dog G, 4 h): 4.0 µg/g
- plasma concentration ([1]; dog G, 4 h): 4100 ng/mL
- brain concentration ([1]; dog H, 1 h): 11.6 µg/g
- peripheral nerve concentration ([1]; dog H, 1 h): 14.0 µg/g
- plasma concentration ([1]; dog H, 1 h): 23100 ng/mL
- brain concentration ([1]; dog H, 2 h): 10.0 µg/g
- peripheral nerve concentration ([1]; dog H, 2 h): 15.5 µg/g
- plasma concentration ([1]; dog H, 2 h): 22200 ng/mL
- brain concentration ([1]; dog H, 3 h): 8.5 µg/g
- peripheral nerve concentration ([1]; dog H, 3 h): 14.7 µg/g
- plasma concentration ([1]; dog H, 3 h): 18700 ng/mL
- brain concentration ([1]; dog H, 4 h): 7.9 µg/g
- peripheral nerve concentration ([1]; dog H, 4 h): 15.6 µg/g
- plasma concentration ([1]; dog H, 4 h): 18500 ng/mL
- Kp at 4 h ([1]; brain, 25 mg kg-1, dog H, 4 h, read-out: brain/plasma ratio): 0.43
- Kp at 1 h ([1]; brain/plasma, 25 mg kg-1, dog G, 1 h, read-out: brain/plasma ratio): 0.35
- Kp at 2 h ([1]; brain/plasma, 25 mg kg-1, dog G, 2 h, read-out: brain/plasma ratio): 0.39
- Kp at 3 h ([1]; brain/plasma, 25 mg kg-1, dog G, 3 h, read-out: brain/plasma ratio): 0.49
- Kp at 4 h ([1]; brain/plasma, 25 mg kg-1, dog G, 4 h, read-out: brain/plasma ratio): 0.26
- Kp at 1 h ([1]; brain/plasma, 25 mg kg-1, dog H, 1 h, read-out: brain/plasma ratio): 0.5
- Kp at 2 h ([1]; brain/plasma, 25 mg kg-1, dog H, 2 h, read-out: brain/plasma ratio): 0.45
- Kp at 3 h ([1]; brain/plasma, 25 mg kg-1, dog H, 3 h, read-out: brain/plasma ratio): 0.45
- Kp at 3 h ([1]; peripheral nerve, 25 mg kg-1, dog H, 3 h, read-out: peripheral nerve/plasma ratio): 0.78
- Kp at 4 h ([1]; peripheral nerve, 25 mg kg-1, dog H, 4 h, read-out: peripheral nerve/plasma ratio): 0.84
- Kp at 1 h ([1]; peripheral nerve/plasma, 25 mg kg-1, dog G, 1 h, read-out: peripheral nerve/plasma ratio): 0.41
- Kp at 2 h ([1]; peripheral nerve/plasma, 25 mg kg-1, dog G, 2 h, read-out: peripheral nerve/plasma ratio): 0.9
- Kp at 4 h ([1]; peripheral nerve/plasma, 25 mg kg-1, dog G, 4 h, read-out: peripheral nerve/plasma ratio): 0.96
- Kp at 1 h ([1]; peripheral nerve/plasma, 25 mg kg-1, dog H, 1 h, read-out: peripheral nerve/plasma ratio): 0.6
- Kp at 2 h ([1]; peripheral nerve/plasma, 25 mg kg-1, dog H, 2 h, read-out: peripheral nerve/plasma ratio): 0.7
- brain/whole plasma ratio, overall mean (s.e., n=8) ([1]; two crossbred dogs, 1-4 h): 42+3%
- peripheral nerve/whole plasma ratio, mean (s.e., n=7) ([1]; two crossbred dogs, 1-4 h): 74+7%
- aqueous solubility (Aqueous solubility): low aqueous solubility
- MTD [2]: ~832 mg/kg
- fraction unbound (plasma proteins): 0.41 to 0.61
- mean t1/2 ([3]; humans, low doses, polarographic analysis, ref Raaflub & Ziegler (1979) and Raaflub (1980)): 12 to 14 h
- mean steady state maximum plasma concentration (s.e., n=6) [3, 4]: 12.4 ± 0.7 µg/mL
- mean steady state minimum plasma concentration (s.e., n=6) [3, 4]: 8.3 ± 0.6 µg/mL
- peak time ([3]; man, low oral doses, ref Raaflub & Ziegler, 1979): 3 to 4 h
- mean peak plasma concentration per administered mg kg-1 (s.e., n=7) ([3]; man, oral, low doses (mean 1.73 mg kg-1), ref Raaflub & Ziegler, 1979): 1.48 + 0.06 µg ml-1
- binding (bovine serum albumin): 46%
